# Data taken from patent US20070027175A1, “Antineoplastic activities of ellipticine and its derivatives” (priority 2005, published 2007).
# How the values were obtained:
# [1] = test system: human fetal bone mesenchymal cells; test: Morphology of mesenchymal cells in co-culture; assay type: cell-based; conditions: co-culture without direct contact; EPED3 2 mM, Velcade 0.5 mM
# Method: FIGS. 11A-11F compare the morphological features of EPED3 and Velcade induced apoptosis in myeloma cells and normal mesenchymal cells. JJN3 myeloma cell line and human fetal bone mesenchymal cells were co-cultured without direct contact between cell types. EPED3 (2 mM) and Velcade (0.5 mM) were added to the cultures; control cells were untreated. Live cell cultures were photographed 3 days after initiating treatment (400× magnification under Olympus invert-microscope with RT-Color SPOT digital camera and the software, Diagnostic Instrument Inc. Sterling Heights, Mich.). In comparison to cell morphology of non-treated JJN3 cells, myeloma cells were destroyed under both EPED3 (FIG. 11E) and Velcade (FIG. 11F) treatments as the appearance of cell shrinkage, and the formation of phagozytosed apoptotic bodies (arrows); in comparison to no treatment, mesenchymal cells were also destroyed by Velcade treatment as the appearance of cell shrinkage, and the formation of phagozytosed apoptotic bodies (arrows) (FIG. 1C) but not by EPED3 treatment (FIG. 11B).
# The monolayer human fetal bone mesenchymal cells were established from live bone chips (Advanced Bioscience Resources Inc, Alameda, Calif.) in complete RPMI-1640 medium. The medium was the same as described above. The cells were trypsinized and seeded in 6-well plates, and then allowed to reach 75% confluence. […]
# [2] = test system: U266 cells; test: Flow cytometry cell cycle arrest (DNA-Prep); assay type: cell-based, human; conditions: 12 hours; EPED3 2 μM, Velcade 0.5 μM
# Method: FIGS. 14A-14L show flowcytometry analyses of cell viability and cell cycle arrest under EPED3 and Velcade treatments. U266 cells were co-cultured without contact with human fetal bone mesenchymal cells. Cells were untreated (Control; FIGS. 14A, 14D, 14G, 14J) or exposed to […] (FIGS. 14B, 14E, 14H, 14K) or […] (FIGS. 14C, 14F, 14I, 14L) for 12 hours and then harvested. Pan-caspase inhibitor Z-VAD-FMK ([…]) was also added to co-cultures (FIGS. 14D-14F and FIGS. 14J-14L) to block caspase-dependent apoptosis and then analyzed for cell cycling arrest. Percent cells in G0+G1 and G2+M phases were measured by the peaks of DNA helix and are gated with each graph (FIGS. 14A-14F). Percent cells with fragmented DNA are indicated as c % in each graph. Cells were also analyzed for apoptotic status (FIGS. 14G-14L) using Coulter Annexin-V FITC/7-AAD kit. Untreated cells (Control; FIGS. 14G and 14J) were maintained at high viability (90%). Early apoptotic cells were gated at G4, and necrotic cells were gated at G2; percent cells in each population are indicated with each graph. The arrows indicate percent viable cells ingested EPED3, whose fluorescent property was captured at channel FL4 (FIGS. 14H, 14K).
# Cell cycle arrest was measured using DNA-Prep Coulter Reagents kit (Beckman Coulter, Inc., Miami, Fla.). Myeloma cells were harvested from co-culture inserts and washed in phosphate buffered saline (PBS); 5×10^5 cells were stained according to the manufacturer's instructions. Samples were analyzed using EPICS XL-MCL flowcytometer equipped with EXPO32 ADC software (Beckman Coulter, Inc.).
# To investigate the effects of EPED3 on apoptosis and cell cycle arrest of myeloma cells, U266 cells were exposed to EPED3 (2 μM) or Velcade (0.5 μM) in co-culture without direct contact with fetal human bone mesenchymal cells. Twelve hours after treatment, cells were harvested for using flow cytometry to detect ongoing apoptosis and cell cycle arrest.
# The cell cycle arrest analysis was simultaneously performed to examine DNA helix in U266 cells at 12 hours. […] Furthermore, 7.2% of the EPED3-treated population was in G2+M phase as opposed to 25.4% of the control and 18.9% of Velcade-treated populations in the G2+M phase (FIG. 14A-14C).
# [3] = test system: 12 myeloma cell lines (Ark, BW288, CAG, Delta47, DF15, JJN3, kms11, L363, opm2, RPMI8226, U266 and XG1); test: Comparative study with existing anti-myeloma drugs (CellTiter-Glo); assay type: cell-based, human; set-up: time to inhibition of cell proliferation: dose or concentration left out as unconfirmed
# Text: The results obtained from these controls are pooled together in the figure (●). The dose of each compound was set […].
# Comparative study of NSC 338258 with existing anti-myeloma drugs Myeloma cell lines were exposed to NSC 338258 and existing anti myeloma drugs, Adriamycin® (Doxorubicin Hydrochloride) and Etoposide (VP-16-213) in ninety six well culture plates. The concentration of each compound was set […]. […] The cell growth was near zero in the following days (day 4 onwards; FIG. 6). It was also observed that 12 myeloma cell lines (Ark, BW288, CAG, Delta47, DF15, JJN3, kms11, L363, opm2, RPMI8226, U266 and XG1) responded to the same dosage (0.2 μM) of NSC 338258, VP-16-213 and Adriamycin in 5 days.
# [4] = test system: non myeloma cancer cell lines HEL, HL-60, k562, MEG01, THP1, Hela, G401, Du145, sw480, sw620, saoS2, MG63; test: Overall cell growth inhibition, non myeloma cancer cell lines (CellTiter-Glo); assay type: cell-based; set-up: dose or concentration left out as unconfirmed; conditions: 5 days
# Method: Five non myeloma cancer cell lines, HEL (▮), HL-60 (▴), k562 (X), MEG01 ( ? ) and THP1 (▪) were exposed to NSC 388258 over a period of 5 days. The dose was set at 0.2 mM. […] The results obtained from these controls are pooled together in the figure (●).
# Seven non myeloma cancer cell lines, Hela (▮), G401 (▴), Du145 (X), sw480, (*) sw620 (▪), SaoS2 (I) and MG63 (−) were exposed to NSC 388258 over a period of 5 days. The dose was set at 0.2 mM. […] The results obtained from these controls are pooled together in the figure (●).
# To test the overall cell growth inhibition of NSC 338258, twelve non myeloma cancer cell lines, HEL, HL-60, k562, MEG01, THP1, Hela, G401, Du145, sw480, sw620, saoS2, and MG63, were exposed to the compound in 96 well cell culture plates for a period of five days.
# [5] = test system: NCI-60 cancer panel; conditions: average across the cell lines of the concentration at which growth is inhibited 50%; unit in the High Conc. footnote; cited from earlier work
smiles,measurement,setting,value
"CC(C)C[C@H](NC(=O)[C@H](Cc1ccccc1)NC(=O)c1cnccn1)B(O)O [Velcade, bortezomib, reference compound]",morphological damage of mesenchymal cells,[1],severe destruction of the mesenchymal cells
same,population in G0+G1 phase,[2],59.8%
same,population in G2+M phase,[2],18.9%
"Cc1c2ccncc2c(C)c2c1[nH]c1ccc(OCCN(C)C)cc12 [NSC 338258, ellipticine, 9-dimethyl amino-ethoxy-]",time to inhibition of cell proliferation,[3],≤ 24 h
same,response of 12 myeloma cell lines,"[3]; 0.2 μM, in 5 days",responded
same,activity against non-myeloma cell lines,[4],effective against non-myeloma cell lines
same,population in G0+G1 phase,[2],67.5%
same,population in G2+M phase,[2],7.2%
same,Mean GI50,[5],−6.57 log^10 molar
